Reference: ChEMBL document CHEMBL3102727, “Conformationally constrained ortho-anilino diaryl ureas: discovery of 1-(2-(1'-neopentylspiro[indoline-3,4'-piperidine]-1-yl)phenyl)-3-(4-(trifluoromethoxy)phenyl)urea, a potent, selective, and bioavailable P2Y1 antagonist” (J Med Chem, 2013)
In brackets after ≈: the same amount, converted by molar mass. Activity calls are given as the source filed them. No cut-off for these calls is given here.

Key:
[1] = Fraction unbound in rat; assay type: ADME, organism-based; conditions: in vivo
Rattus norvegicus [2] = test: Antithrombotic activity in FeCl2-induced Sprague-Dawley rat carotid artery thrombosis model assessed as reduction of thrombus weight at 0.6 mg/kg and 2.25 mg/kg/hr, iv after 60 mins relative to vehicle-treated control; assay type: functional; design: scale not given: the % may be the effect or the level left
[3] = Total AUC in rat at 0.5 mg/kg, po; assay type: ADME, organism-based; design: time AUCmax, dose 0.5 mg/kg, route oral; conditions: in vivo
[4] = Half life in dog at 0.2 mg/kg, po; assay type: ADME, organism-based, Canis lupus familiaris; design: dose 0.2 mg/kg, route oral; conditions: in vivo
Rattus norvegicus [5] = test: Antithrombotic activity in FeCl2-induced Sprague-Dawley rat carotid artery thrombosis model assessed as prevention of vascular occlusion at 10 mg/kg, po after 60 mins; assay type: functional, organism-based; design: dose 10 mg/kg
[6] = Oral bioavailability in rat at 0.5 mg/kg; assay type: ADME, organism-based; conditions: in vivo
P2Y purinoceptor 1 [7] = target: T1, P2Y purinoceptor 1 (Homo sapiens, UniProt P47900); test: Displacement of [33P]-2MeS-ADP from human P2Y1 receptor expressed in HEK293 cells after 1 hr by scintillation counting analysis; assay type: cell-based
T1 sequence (P47900 whole entry): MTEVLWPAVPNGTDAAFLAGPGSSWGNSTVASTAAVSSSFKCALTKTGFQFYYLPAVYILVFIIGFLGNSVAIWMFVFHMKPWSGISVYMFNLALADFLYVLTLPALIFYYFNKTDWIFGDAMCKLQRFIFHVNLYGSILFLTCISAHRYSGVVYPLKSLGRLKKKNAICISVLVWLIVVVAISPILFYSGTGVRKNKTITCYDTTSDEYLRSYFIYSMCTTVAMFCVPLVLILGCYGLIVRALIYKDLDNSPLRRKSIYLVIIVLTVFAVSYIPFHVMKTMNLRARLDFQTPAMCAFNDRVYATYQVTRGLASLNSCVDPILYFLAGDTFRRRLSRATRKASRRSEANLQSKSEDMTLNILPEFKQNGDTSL

Rattus norvegicus [8] = test: Antithrombotic activity in FeCl2-induced Sprague-Dawley rat vena cava thrombosis model assessed as reduction of thrombus weight at 0.6 mg/kg and 2.25 mg/kg/hr, iv after 60 mins relative to vehicle-treated control; assay type: functional; design: scale not given: the % may be the effect or the level left
Rattus norvegicus [9] = species: Rattus norvegicus; test: Inhibition of rat sodium channel site-2 at 10 uM relative to control
[10] = Fraction unbound in rabbit; assay type: ADME, organism-based, Oryctolagus cuniculus; conditions: in vivo
Rattus norvegicus [11] = test: Antithrombotic activity in FeCl2-induced Sprague-Dawley rat carotid artery thrombosis model assessed as prevention of vascular occlusion at 0.6 mg/kg and 2.25 mg/kg/hr, iv after 60 mins; assay type: functional, organism-based
Rattus norvegicus [12] = test: Induction of mesenteric bleeding time in Sprague-Dawley rat at 0.6 mg/kg and 2.25 mg/kg/hr, iv measured over 10 mins relative to vehicle-treated control; assay type: organism-based; conditions: in vivo
[13] = Aqueous solubility of the crystalline form of compound in phosphate buffer at pH 6.5; assay type: physicochemical
HEK293 = test: Selectivity ratio of IC50 for P2X1 receptor in HEK293 cells to IC50 for P2Y1 receptor in washed human platelets; assay type: cell-based
P2Y purinoceptor 1 [14] = target: T1, P2Y purinoceptor 1; test: Antagonist activity at P2Y1 receptor in washed human platelets assessed as 1 uM 2-methylthio-ADP-induced calcium flux by FLIPR assay; assay type: functional
Rattus norvegicus [15] = test: Antithrombotic activity in FeCl2-induced Sprague-Dawley rat carotid artery thrombosis model assessed as reduction of thrombus weight at 3 mg/kg, po after 60 mins relative to vehicle-treated control; assay type: functional; design: scale not given: the % may be the effect or the level left
L-type calcium channel = L-type calcium channel (Rattus norvegicus, UniProt P22002+P27732+Q02485); test: Inhibition of rat L-type calcium channel at 10 uM relative to control
[16] = Metabolic stability in human liver microsomes assessed as compound remaining after 10 mins; assay type: ADME; conditions: read-out: Stability
Rattus norvegicus [17] = test: Antithrombotic activity in po dosed FeCl2-induced Sprague-Dawley rat carotid artery thrombosis model assessed as inhibition of arterial thrombus formation after 60 mins; assay type: functional, organism-based
[18] = Volume of distribution at steady state in rat at 0.5 mg/kg, iv administered as bolus dose; assay type: ADME, organism-based; design: dose 0.5 mg/kg, route intravenous; conditions: in vivo, read-out: Vdss
Rattus norvegicus [19] = test: Ex vivo antiplatelet activity in Sprague-Dawley rat assessed as inhibition of […] uM ADP-induced platelet aggregation at 0.6 mg/kg and 2.25 mg/kg/hr, iv after 60 mins relative to vehicle-treated control; assay type: functional
Rattus norvegicus [20] = test: Antithrombotic activity in FeCl2-induced Sprague-Dawley rat carotid artery thrombosis model assessed as reduction of thrombus weight at 0.2 mg/kg and 0.75 mg/kg/hr, iv after 60 mins relative to vehicle-treated control; assay type: functional; design: scale not given: the % may be the effect or the level left
Rattus norvegicus [21] = test: Ex vivo antiplatelet activity in Sprague-Dawley rat assessed as inhibition of […] uM ADP-induced platelet aggregation at 0.2 mg/kg and 0.75 mg/kg/hr, iv after 60 mins relative to vehicle-treated control; assay type: functional
Rattus norvegicus [22] = test: Antithrombotic activity in FeCl2-induced Sprague-Dawley rat carotid artery thrombosis model assessed as reduction of thrombus weight at 10 mg/kg, po after 60 mins relative to vehicle-treated control; assay type: functional; design: scale not given: the % may be the effect or the level left
Rattus norvegicus [23] = test: Antithrombotic activity in FeCl2-induced Sprague-Dawley rat carotid artery thrombosis model assessed as integrated blood flow at 0.6 mg/kg and 2.25 mg/kg/hr, iv after 60 mins relative to vehicle-treated control; assay type: functional
Rattus norvegicus [24] = test: Antithrombotic activity in iv dosed FeCl2-induced Sprague-Dawley rat vena cava thrombosis model assessed as reduction of thrombus weight after 60 mins; assay type: functional, organism-based
[25] = Partition coefficient, log P of the compound at pH 7 by reversed-phase HPLC method; assay type: physicochemical; conditions: octanol/water
[26] = target: Opioid receptors; mu/kappa/delta (Homo sapiens, UniProt P41145+P41143+P35372); test: Inhibition of opioid receptor (unknown origin)
Rattus norvegicus [27] = test: Antithrombotic activity in FeCl2-induced Sprague-Dawley rat vena cava thrombosis model assessed as reduction of thrombus weight at 0.2 mg/kg and 0.75 mg/kg/hr, iv after 60 mins relative to vehicle-treated control; assay type: functional; design: scale not given: the % may be the effect or the level left
Rattus norvegicus [28] = test: Antithrombotic activity in iv dosed FeCl2-induced Sprague-Dawley rat carotid artery thrombosis model assessed as inhibition of arterial thrombus formation after 60 mins; assay type: functional, organism-based
[29] = Fraction unbound in mouse; assay type: ADME, organism-based; conditions: in vivo
P2Y purinoceptor 12 = P2Y purinoceptor 12 (Homo sapiens, UniProt Q9H244); test: Displacement of [33P]-2MeS-ADP from P2Y12 receptor (unknown origin) transfected in HEK293 cells after 1 hr by scintillation counting analysis; assay type: cell-based
Sequence of P2Y purinoceptor 12 (Q9H244 whole entry): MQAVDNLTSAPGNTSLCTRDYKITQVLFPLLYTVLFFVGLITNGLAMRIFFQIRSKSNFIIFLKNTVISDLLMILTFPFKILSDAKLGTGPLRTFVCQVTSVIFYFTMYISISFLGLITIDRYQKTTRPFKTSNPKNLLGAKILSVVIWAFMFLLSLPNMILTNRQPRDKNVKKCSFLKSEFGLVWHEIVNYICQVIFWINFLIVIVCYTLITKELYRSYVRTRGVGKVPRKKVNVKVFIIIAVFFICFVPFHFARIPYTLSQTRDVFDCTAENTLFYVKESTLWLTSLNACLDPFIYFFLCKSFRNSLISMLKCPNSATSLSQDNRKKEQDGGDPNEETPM

[30] = Clearance in dog at 0.2 mg/kg, po and 0.1 mg/kg, iv; assay type: ADME, organism-based, Canis lupus familiaris; conditions: in vivo
P2Y purinoceptor 2 = P2Y purinoceptor 2 (Homo sapiens, UniProt P41231); test: Antagonist activity at P2Y2 receptor in human HeLa cells assessed as intracellular calcium mobilization after 10 mins by Fluo-4 AM staining-based FLIPR assay; assay type: functional, cell-based
Sequence of P2Y purinoceptor 2 (P41231 whole entry): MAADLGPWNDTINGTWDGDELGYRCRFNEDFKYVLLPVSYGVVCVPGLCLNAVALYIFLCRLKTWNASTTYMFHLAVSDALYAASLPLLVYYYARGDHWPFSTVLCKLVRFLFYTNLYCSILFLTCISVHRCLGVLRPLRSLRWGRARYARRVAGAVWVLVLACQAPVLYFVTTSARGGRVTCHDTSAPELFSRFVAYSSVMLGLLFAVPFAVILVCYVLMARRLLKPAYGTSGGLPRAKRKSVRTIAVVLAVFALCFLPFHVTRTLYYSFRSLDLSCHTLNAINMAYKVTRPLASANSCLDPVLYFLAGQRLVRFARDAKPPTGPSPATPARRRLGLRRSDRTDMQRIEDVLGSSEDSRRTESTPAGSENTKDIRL

Rattus norvegicus [31] = test: Ex vivo antiplatelet activity in Sprague-Dawley rat assessed as inhibition of […] uM ADP-induced platelet aggregation at 3 mg/kg, po after 60 mins relative to vehicle-treated control; assay type: functional; conditions: 1 h
Rattus norvegicus [32] = test: Induction of mesenteric bleeding time in iv dosed Sprague-Dawley rat measured over 10 mins; assay type: organism-based; conditions: in vivo
[33] = Fraction unbound in human; assay type: ADME, organism-based; conditions: in vivo
Rattus norvegicus [34] = test: Induction of mesenteric bleeding time in Sprague-Dawley rat at 0.2 mg/kg and 0.75 mg/kg/hr, iv measured over 10 mins relative to vehicle-treated control; assay type: organism-based; conditions: in vivo
Rattus norvegicus [35] = test: Ex vivo antiplatelet activity in Sprague-Dawley rat assessed as inhibition of […] uM ADP-induced platelet aggregation at 10 mg/kg, po after 60 mins relative to vehicle-treated control; assay type: functional; conditions: 1 h
[36] = Fraction unbound in dog; assay type: ADME, organism-based, Canis lupus familiaris; conditions: in vivo
[37] = Volume of distribution at steady state in dog at 0.2 mg/kg, po and 0.1 mg/kg, iv; assay type: ADME, organism-based, Canis lupus familiaris; conditions: in vivo, read-out: Vdss
Rattus norvegicus [38] = test: Antithrombotic activity in iv dosed FeCl2-induced Sprague-Dawley rat carotid artery thrombosis model assessed as increase in integrated blood flow measured over 60 mins; assay type: functional, organism-based
[39] = Metabolic stability in rat liver microsomes assessed as compound remaining after 10 mins; assay type: ADME; conditions: read-out: Stability
P2X purinoceptor 1 = target: T2, P2X purinoceptor 1 (Homo sapiens, UniProt P51575); test: Antagonist activity at P2X1 receptor in HEK293 cells assessed as alpha, beta-methylene ATP-induced calcium flux by FLIPR assay; assay type: cell-based
T2 sequence (P51575 whole entry): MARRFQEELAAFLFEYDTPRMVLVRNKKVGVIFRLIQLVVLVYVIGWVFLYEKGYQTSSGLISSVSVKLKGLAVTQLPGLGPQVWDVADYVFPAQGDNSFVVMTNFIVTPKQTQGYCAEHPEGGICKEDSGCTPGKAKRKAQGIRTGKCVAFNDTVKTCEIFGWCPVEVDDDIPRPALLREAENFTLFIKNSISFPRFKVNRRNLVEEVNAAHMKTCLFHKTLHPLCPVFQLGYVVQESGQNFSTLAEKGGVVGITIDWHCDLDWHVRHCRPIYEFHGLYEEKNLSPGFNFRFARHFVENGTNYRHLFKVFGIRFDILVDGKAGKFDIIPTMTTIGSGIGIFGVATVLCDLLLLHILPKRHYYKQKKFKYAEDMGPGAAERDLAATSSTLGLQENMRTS

[40] = Half life in rat at 0.5 mg/kg, iv administered as bolus dose and po; assay type: ADME, organism-based; design: dose 0.5 mg/kg, route oral; conditions: in vivo
[41] = Clearance in rat at 0.5 mg/kg, iv administered as bolus dose; assay type: ADME, organism-based; design: dose 0.5 mg/kg, route intravenous; conditions: in vivo
Rattus norvegicus [42] = test: Antithrombotic activity in FeCl2-induced Sprague-Dawley rat carotid artery thrombosis model assessed as integrated blood flow at 10 mg/kg, po after 60 mins relative to vehicle-treated control; assay type: functional
Rattus norvegicus [43] = test: Antithrombotic activity in po dosed FeCl2-induced Sprague-Dawley rat carotid artery thrombosis model assessed as increase in integrated blood flow measured over 60 mins; assay type: functional, organism-based
[44] = Oral bioavailability in dog at 0.2 mg/kg; assay type: ADME, organism-based, Canis lupus familiaris; conditions: in vivo

## CC(C)(C)CN1CCC2(CC1)CN(c1ccccc1NC(=O)Nc1ccc(OC(F)(F)F)cc1)c1ccccc12
[1]
  Fu: < 0.1%
Rattus norvegicus [2]
  Activity: 66%
[3]
  AUC: 0.587 µM·h
[4]
  half-life: 582 min
Rattus norvegicus [5]
  Activity: Active
[6]
  bioavailability: 32%
P2Y purinoceptor 1 [7]
  Ki: 4.3 nM
Rattus norvegicus [8]
  Activity: -54%
Rattus norvegicus [9]
  inhibition: 88%
[10]
  Fu: 0.1%
Rattus norvegicus [11]
  Activity: Active
Rattus norvegicus [12]
  fold change (FC): 2.3
[13]
  solubility: 4 µg/mL (≈ 7.24 µM)
HEK293
  Ratio IC50: > 600
P2Y purinoceptor 1 [14]
  IC50: 2.5 nM
Rattus norvegicus [15]
  Activity: -45%
L-type calcium channel
  inhibition at 10 µM: 78%
[16]
  remaining at 10 min: 89%
Rattus norvegicus [17]
  inhibition: Dose-dependent effect
[18]
  Vd: 2.8 L/kg
Rattus norvegicus [19]
  inhibition (INH): -85%
Rattus norvegicus [20]
  Activity: -41%
Rattus norvegicus [21]
  inhibition (INH): -30%
Rattus norvegicus [22]
  Activity: 64%
Rattus norvegicus [23]
  Activity: >95%
Rattus norvegicus [24]
  Activity: Dose-dependent effect
[25]
  logP: > 6.2
[26]
  IC50: 2.7 µM
Rattus norvegicus [27]
  Activity: -26%
Rattus norvegicus [28]
  inhibition: Dose-dependent effect
[29]
  Fu: 0.2%
P2Y purinoceptor 12
  IC50: > 20 µM
[30]
  clearance: 5.3 mL/min/kg
P2Y purinoceptor 2
  IC50: > 10 µM
Rattus norvegicus [31]
  inhibition in vivo at 3 mg/kg: -48%
Rattus norvegicus [32]
  Activity: Dose-dependent effect
[33]
  Fu: < 0.1%
Rattus norvegicus [34]
  fold change (FC): 2.7
Rattus norvegicus [35]
  inhibition in vivo at 10 mg/kg: -64%
[36]
  Fu: 0.2%
[37]
  Vd: 2.8 L/kg
Rattus norvegicus [38]
  Activity: Dose-dependent effect
[39]
  remaining at 10 min: 87%
P2X purinoceptor 1
  IC50: 1600 nM
[40]
  half-life: 450 min
[41]
  clearance: 9.1 mL/min/kg
Rattus norvegicus [42]
  Activity: >95%
Rattus norvegicus [43]
  Activity: Dose-dependent effect
[44]
  bioavailability: 55%
